# Assay results as given in patent US9833433B1, “Compositions, methods of use, and methods of treatment” (priority 2013, dated 2017).
# Key:
# PGE2 [1] = assay: PGE2 assay in hippocampal tissue (enzyme immunoassay); format: in vivo, mice
# From the text: PGE2 in hippocampal tissue was detected using PGE2 enzyme immunoassay kit (Cayman Chemical, Ann Arbor, Mich.) according to the procedure described by the manufacturer (Zhang and Chen, 2008).
# COX-2 [2] = assay: Hippocampal COX-2 expression in mice (immunoblot); format: in vivo
# [3] = test system: synaptic release of glutamate; assay: Miniature spontaneous EPSCs (mEPSCs) in cultured hippocampal neurons; format: cell-based; conditions: NS398 10 μM + Δ^9-THC 3 μM; 24 hrs
# [4] = test system: hippocampal LTP at CA3-CA1 and perforant path synapses; assay: Hippocampal LTP (fEPSP recordings in slices, theta-burst stimulation); format: in vivo, mice
# Experimental: Hippocampal LTP both at CA3-CA1 and perforant path synapses were recorded in acutely hippocampal slices and induced by a theta-burst stimulation (TBS) as described previously (Hoffman et al., 2007).
# Hippocampal slices were prepared from mice as described previously (Chen et al., 2002; Chen et al., 2012; Fan et al., 2010). Briefly, after decapitation, brains were rapidly removed and placed in cold oxygenated (95% O2, 5% CO2) artificial cerebrospinal fluid (ACSF) containing: 125.0 NaCl, 2.5 KCl, 1.0 MgCl2, 25.0 NaHCO3, 1.25 NaH2PO4, 2.0 CaCl2, 25.0 glucose, 3 pyruvic acid, and 1 ascorbic acid. Slices were cut at a thickness of 350-400 μm and transferred to a holding chamber in an incubator containing ACSF at 36° C. for 0.5 to 1 hour, and maintained in an incubator containing oxygenated ACSF at room temperature (˜22-24° C.) for >1.5 h before recordings. Slices were then transferred to a recording chamber where they were continuously perfused with 95% O2, 5% CO2-saturated standard ACSF at ˜32-34° C. Individual pyramidal and dentate granule neurons were viewed with an upright microscope (Olympus BX51WI) fitted with a 60× water-immersion objective and differential interference contrast (DIC) optics.
# Field EPSP (fEPSP) recordings both at CA3-CA1 and perforant path synapses in response to stimuli at a frequency of 0.05 Hz were made using an Axoclamp-2B patch-clamp amplifier (Molecular Devices, CA) in bridge mode. Recording pipettes were pulled from borosilicate glass with a micropipette puller (Sutter Instrument), filled with artificial ACSF (2-4 MΩ). […]
# GluA1, GluN2A, GluN2B = assay: Immunostaining of synaptic and extrasynaptic glutamate receptor subunits in hippocampal CA1; conditions: NS398+Δ^9-THC
# spatial memory = assay: Morris water maze test (spatial memory); format: in vivo, mice; conditions: NS398 10 mg/kg + Δ^9-THC 10 mg/kg once a day for 7 days
# Experimental: (§1) The classic Morris water maze and fear conditioning tests were performed to determine spatial and fear memory as described previously (Chen et al., 2012). The ‘open field’ test was conducted to detect the locomotor activity and the bar test was used to detect catalepsy (Egashira et al., 2007).
# The classic Morris water maze test was used to determine spatial memory as described previously (Chen et al., 2012). A circular water tank (diameter 120 cm and 75 cm in high) was filled with water and the water was made opaque with non-toxic white paint. A round platform (diameter 15 cm) was hidden 1 cm beneath the surface of the water at the center of a given quadrant of the water tank. COX-2 KO and WT mice received training in the Morris water maze for 5 days without any treatments (naïve). […] For each trial, the mouse was released from the wall of the tank and allowed to search, find, and stand on the platform for 10 seconds within the 60-second trial period. […] During the probe test, the platform was removed from the pool, and the task performances were recorded for 60 seconds by a video-camera and the task performances, including swimming paths, speed, and time spent in each quadrant using an EthoVision video tracking system (Noldus). The time spent in each quadrant was analyzed.
# [5] = test system: dendritic spines of CA1 pyramidal neurons; assay: Two-photon imaging of dendritic spines in CA1 pyramidal neurons; format: in vivo, mice; conditions: NS398+Δ^9-THC
# Experimental: Morphology of dendritic spines in hippocampal CA1 pyramidal neurons was determined in GFP-expressing transgenic mice using a two-photon laser scanning microscope as described previously (Chen et al., 2012). Shape, size, and density of spines were measured from the three-dimensional reconstructions using NeuronStudio Version 0.9.92.
# Morphology of dendritic spines in hippocampal CA1 pyramidal neurons was determined in GFP-expressing transgenic mice treated with vehicle, Δ^9-THC or NS398+Δ^9-THC using a two-photon laser scanning microscope (Chameleon hands-free ultrafast Ti: sapphire laser with an Olympus scan head) with Olympus FLUOVIEW 300 software (Chen et al., 2012). Shape (thin, mushroom, or stubby), size, density, and volume of spines were measured from the three-dimensional reconstructions (Z stacks: 1μ step for the whole cell and 0.1μ step for a segment of dendrites) using AutoQuant X2 or 3D deconvolution plugin of Image J (http://bigwww.epfl.ch/algorithms/deconvolutionlab) and NeuronStudio (for 3D reconstruction of imaged dendritic spines, Version 0.9.92; http://research.mssm.edu/cnic/tools-ns.html, CNIC, Mount Sinai School of Medicine). […] The following parameters were used in analyzing and quantifying spines using NeuronStudio: Voxel size was set as 0.029*0.029*0.3 μm. […]
# fear memory = assay: Fear conditioning test (contextual memory); format: in vivo, mice; conditions: NS398 10 mg/kg + Δ^9-THC 10 mg/kg once a day for 7 days
# Experimental: as §1
# Hippocampus-dependent contextual memory was determined using a fear-conditioning working-station (Coulbourn Instruments, Allentown, Pa.) and a one-trial protocol as describe previously (Chen et al., 2006a; 2006b). Mice were individually put into the shock chamber and allowed to freely explore the environment for 150 seconds. Immediately after this, a tone at 90 dB and 2,800 Hz (CS) was delivered for 30 seconds, and at the last 2 seconds a foot shock at 0.8 mA was delivered to the mice for 2 seconds (US). After the pairing of CS/US, mice were allowed to stay in the chamber for another 30 seconds and then returned to their home cages. Then the animals started receiving vehicle, Δ^9-THC (10 mg/kg), NS398 (10 mg/kg), Δ^9-THC+NS398 once a day for 7 days. Fear memory test was conducted 24 hours after the cessation of the last injections. For contextual conditioning, mice were individually put back into the chamber where they received the shock and the freezing response was recorded for 5 minutes with a sampling method at an interval of 5 seconds. […]
# COX-2 [6] = assay: COX-2 expression in neuronal and astroglial cell-enriched cultures; format: cell-based; conditions: assayed 12 hr after treatments
# Experimental: Relative pure hippocampal neurons (astroglial cells<2%), mixed neurons and astroglial cells (astroglial cells ˜10%), and astroglial cell-enriched (astroglial cells>95%), and NG108-15 cell cultures were made as described previously (Sang et al, 2005; Zhang and Chen, 2008).
# Primary hippocampal neurons (astroglial cells<2%), mixed neurons and astroglial cells (astroglial cells ˜10%), astroglial cell-enriched (astroglial cells>95%) and NG108-15 cells were cultured as described previously (Sang et al, 2005; Zhang and Chen, 2008). The extent of neurons and astroglial cells in culture were controlled by different treatments, which was estimated by using immunostaining with NeuN, a neuronal marker, glial fibrillary acidic protein (GFAP), an astrocytic marker, and OX-42, a microglial marker, in conjunction with DAPI staining.
# PGE2 [7] = conditions: earlier studies (Burstein et al., 1989; Fairbairn and Pickens; Perez-Reyes et al., 1991); cited from earlier work
smiles,measurement,setting,value
"CCCCCCC(C)(C)c1ccc([C@@H]2C[C@H](O)CC[C@H]2CCCO)c(O)c1 [CP55,940]",hippocampal PGE2 production after cannabinoid injection,"PGE2 [1]; 10 mg/kg, detected 4 hrs after injection",more pronounced effects on COX-2 expression and PGE2 synthesis
same,hippocampal COX-2 expression after cannabinoid injection,"COX-2 [2]; single i.p. injection, CP55,940 10 mg/kg, detected 4 hrs",more pronounced effects on COX-2 expression and PGE2 synthesis
CS(=O)(=O)Nc1ccc([N+](=O)[O-])cc1OC1CCCCC1 [NS398],effect on Δ^9-THC-enhanced synaptic release of glutamate,[3],blocked by inhibition of COX-2
same,effect on LPS-reduced hippocampal LTP,[4]; LPS 3 mg/kg + NS398 10 mg/kg once a day for 7 days,prevented
same,effect on Δ^9-THC-decreased hippocampal LTP,"[4]; NS398 10 mg/kg 30 min before Δ^9-THC 10 mg/kg, 7 days, CA3-CA1 and perforant path",rescued decreased hippocampal LTP
same,"effect on CP55,940-induced increase in PGE2",PGE2 [1]; NS398 10 mg/kg 30 min prior to CP 10 mg/kg,could be blocked
same,effect on Δ^9-THC-decreased glutamate receptor expression,"GluA1, GluN2A, GluN2B",prevented by inhibition of COX-2
same,effect on Δ^9-THC-impaired spatial memory,spatial memory,occluded by COX-2 inhibition
same,effect on Δ^9-THC-decreased dendritic spine density,[5],prevented by inhibition of COX-2
same,effect on Δ^9-THC-impaired fear memory,fear memory,attenuated by COX-2 inhibition
Cc1c(C(=O)NN2CCCCC2)nn(-c2ccc(Cl)cc2Cl)c1-c1ccc(Cl)cc1 [Rimonabant],effect on Δ^9-THC-induced increase in COX-2 in neurons and astroglial cells in culture,COX-2 [6],blocked
same,effect on Δ^9-THC-induced increase in COX-2 in the hippocampus,"COX-2 [2]; RIM 5 mg/kg 30 min prior to Δ^9-THC 10 mg/kg, detected 4 hr after Δ^9-THC",blocked
COc1ccc2c(c1)c(CC(=O)O)c(C)n2C(=O)c1ccc(Cl)cc1 [indomethacin],effect on marijuana- or Δ^9-THC-induced elevation of PGE2 in circulation and the brain,PGE2 [7],could be antagonized
